According to US5100462A, “Method of counteracting ethylene response by treating plants with diazocyclopentadiene and derivatives thereof” (North Carolina State University, priority 1991, dated 1992):

Columns and labels:
[1] = test system: Carnation; assay: Cut flower longevity, carnation; format: in vivo, Dianthus caryophyllus; settings: volatile DACP
[2] = test system: ethylene binding site in mung bean sprouts; assay: Ethylene binding (14C-ethylene) in mung bean sprouts, incl. Scatchard DACP-ethylene competition; set-up: species or system Vigna radiata L.; settings: for Binding (% of untreated control), Mung bean sprouts, Dark / Binding (% of untreated control), Mung bean sprouts, Light: measured 24 hours after exposure
Procedure: (§1) Plant material was exposed to ^14 C-ethylene in the presence or absence of unlabeled ethylene. Usually exposure was for two hours. After this time, material was aired for two minutes and placed in 250 or 500 ml jars containing mercury perchlorate in liquid scintillation vials which also contained fiberglass filter to increase the surface area for 24 hours. The vials were then removed, scintillation fluid added and the samples counted in a liquid scintillation counter. All measurements were corrected for unbound ethylene. When the number of binding sites inactivated by DACP in the light were desired, samples were aired 48 hours before measuring ethylene binding to allow the DACP not undergoing a light reaction to diffuse away.
(§2) Mung beans (Vigna radiata L.) were germinated in the dark for four days. At this point 10-12 sprouts were placed in 3 liter containers, and treated with DACP and ethylene as indicated in the individual Examples below. Ethylene was changed each day and seedlings were retreated with DACP at seven days. The height was measured at ten days. Light was 560 lux throughout the experiment after the four-day germination in the dark.
(§3) Experiments in the Examples below were carried out under normal laboratory fluorescent lights. The light intensity was 560 lux at the laboratory bench level. Normally treatment was inside 2.5 liter desiccators and the amount of light reaching the plant material was measured to average 448 lux or 80% of the incident light. When more light was needed, desiccators were moved to a position where the intensity was 2700 lux outside the desiccators. The amount of light reaching the plant material was measured to be 2160 lux.
(§4) Scatchard plots are used to determine the binding constants of compounds. An underlying assumption using this method is that the reaction is reversible. Using DACP in the light leads to an irreversible complex and the Scatchard plot is not valid. It can be made and compared with the competition in the dark to evaluate the relative effectiveness of the compound in the light versus dark. FIGS. 6 and 7 represent plots for tobacco leaves and mung bean sprouts in the light and in the dark. It can be seen from these two figures that there are apparently two classes of sites present in both tobacco leaves and mung bean sprouts. The values are much lower in the light which would be expected if the site is being permanently removed. A greater portion of the binding sites appears to be occupied in the competition experiments (FIGS. 6, 7) than in experiments in which added ethylene is not present (FIGS. 3, 4, 5).

[3] = test system: Tomato fruit; assay: Tomato ripening (red/green reflectance ratio); format: in vivo, Lycopersicon esculentum, Mill; settings: 25° C.
Procedure: Plant Material. Tomatoes (Lycopersicon esculentum, Mill) were obtained from a wholesale distributor.
Chemicals. DACP was prepared as previously described and kept as a 4-8% solution in hexane. Treatment was in a 3 l container. DACP was pipetted as a hexane solution onto paper towel to facilitate evaporation. After sealing, the containers were kept in darkness or exposed to 448 lux of fluorescent light for 24 hours. After 24 hours, containers were aired out for 24 hours. Those containers kept in darkness were aired in darkness. Subsequently the ethylene treatment was started and all samples were kept in 448 lux of fluorescent light. The gas phase was changed each day.
Ripening. Ripening was measured with an Agtron reflectance spectrophotometer (Magnson Engineers, Inc., Instruments Division, San Jose, Calif.) which measures the ratio of red/green light reflected from the tomato.

[4] = test system: Potted poinsettia; assay: Protection of potted poinsettia from ethylene; format: in vivo, Euphorbia pulcherima; settings: volatile DACP
Procedure: Potted poinsettia (Euphorbia pulcherima) is treated with volatile DACP in the same manner as described above, and then exposed to ethylene to determine if the DACP would protect the poinsettia from the ethylene.

[5] = test system: beans; assay: Ethylene-induced leaf abscission in beans; format: in vivo, Phaseolus vulgaris; settings: DACP vapor
[6] = test system: ethylene binding site in tobacco leaves; assay: Ethylene binding (14C-ethylene) in tobacco leaves, incl. Scatchard DACP-ethylene competition; set-up: species or system Nicotiana tabacum L.; settings: for Binding (% of untreated control), Tobacco leaves, Dark / Binding (% of untreated control), Tobacco leaves, Light: measured 48 hours after exposure
Procedure: as §1, §3
Tobacco leaves (Nicotiana tabacum L.) were grown in a greenhouse. Leaves were harvested when approximately 10 cm in length, the midrib removed and allowed to stand overnight for wound ethylene to subside. After incubating tobacco leaves with DACP for three hours under fluorescent lights at 448 lux of fluorescent light, some of the ethylene binding site present, as assayed by ^14 C-labeled ethylene disappears. As the concentration of DACP increases, the amount of binding site remaining decreases. The curve (FIG. 1) appears to be biphasic with a decrease of 80% of binding between 0 and 40 μl/l at DACP. Addition of an additional 80 μl/l of DACP reduced binding further 10%. […] In all previous cases, compounds diffused from the binding site with a half life of three to six hours.
as §4

[7] = test system: Cut purple petunias; assay: Cut flower longevity, petunias; format: in vivo, Petunia hydrida; settings: volatile DACP
Procedure: Cut purple petunias (Petunia hydrida) are treated with volatile DACP in the same manner as described above.

[8] = test system: mung bean seedlings; assay: Growth inhibition of mung bean seedlings by ethylene; format: in vivo, Vigna radiata L.
Procedure: as §2, with “Light was 560 lux throughout the experiment after the four-day germination in the dark.” left out

[9] = test system: ethylene binding; settings: Plant Growth Reg. 9, 157-164 (1990); cited from earlier work
[10] = DARK, DACP 120 ul/l + 10 μl/l E
[11] = DARK, DACP 120 ul/l as a gas, no ethylene
[12] = LIGHT, DACP 120 ul/l + 10 μl/l E
[13] = LIGHT, DACP 120 ul/l + 100 μl/l E
[14] = LIGHT, DACP 120 ul/l as a gas, no ethylene

## [N-]=[N+]=C1C=CC=C1 [Diazocyclopentadiene]
[1]
  longevity of the flower: likewise found to increase
[2]; 448 lux, presaturated site (FIG. 3)
  time in which most of the light reaction has occurred: ≤ 30 min
[2]
  Binding (% of untreated control), Mung bean sprouts, Dark: 100 % of untreated control
  Binding (% of untreated control), Mung bean sprouts, Light: 24 % of untreated control
[2]; after release as a liquid (FIG. 3)
  time in which most of the decrease in binding occurs (diffusion to the binding site): ≤ 15 min
[2]; in darkness, 245 μl/l (gas) DACP (FIG. 2B)
  time for 1/2 of the binding site to be regenerated: about two
[3]; DACP in the light
  time by which all of the tomatoes were nearly ripe: ≤ 25 days
[3]; single exposure in the light, whether or not 1000 μl/l of ethylene was present (FIG. 8)
  ratio of red to green: remained constant for ten days
[3]; DACP applied in the dark
  effect on ripening: only a small effect
  time to ripe as indicated by the red/green ratio: ripe in ten days
[4]
  signs of injury from DACP: No signs of injury
[4]; then exposed to ethylene
  death of the flowers (cyanthum) in response to ethylene: died in response to the ethylene in the controls but not on the DACP treated plants
[5]
  ethylene-induced leaf abscission: found to prevent ethylene-induced leaf abscission
[6]
  Binding (% of untreated control), Tobacco leaves, Dark: 100 % of untreated control
  Binding (% of untreated control), Tobacco leaves, Light: 27 % of untreated control
[6]; additional 80 μl/l of DACP, three hours at 448 lux (FIG. 1), 180 min
  further reduction of binding: 10%
[6]; between 0 and 40 μl/l DACP, three hours at 448 lux fluorescent light (FIG. 1), 180 min
  decrease of binding: 80%
[6]; in the dark, 245 μl/l (gas) DACP (FIG. 2A)
  half life of reappearance of the binding site after DACP is removed: about 15 hours
[6]; incubated in darkness, 245 μl/l (gas) DACP (FIG. 2A)
  binding site after incubation with DACP: most of the binding site disappears
[6]; leaves preincubated in the light before removing the DACP (FIG. 2A)
  reappearance of the binding site after DACP is removed: does not reappear or if it does it does so only very slowly over many days
[6]; same leaves re-assayed without retreating with DACP
  amount of binding site after 24 additional hours: appears to remain constant
[6]; two hours DACP in the dark, aired one hour, then light
  amount of binding site inactivated, prebound DACP versus DACP present during the light treatment: No difference
[7]
  longevity of the flower: found to increase
[8]; [10]
  % of Control: 16 % of Control
  Height (cm): 1.5 cm
[8]; [11]
  % of Control: 94 % of Control
  Height (cm): 9.0 cm
[8]; [12]
  % of Control: 80 % of Control
  Height (cm): 7.6 cm
[8]; [13]
  % of Control: 53 % of Control
  Height (cm): 5.0 cm
[8]; LIGHT, DACP 120 ul/l + 1000 μl/l E
  Height (cm): 2.3 cm
[8]; LIGHT, DACP 120 ul/l + 1000 μl/l E, 14400 min
  % of Control: 3.6 % of Control
[8]; [14]
  % of Control: 93 % of Control
  Height (cm): 8.9 cm

## C1=CCC=C1 [cyclopentadiene]
[9]
  blocking of ethylene binding: effective blocking agent for ethylene binding

## C=C [Ethylene]
[2]
  Binding (% of untreated control), Mung bean sprouts, Dark: 100 % of untreated control
  Binding (% of untreated control), Mung bean sprouts, Light: 100 % of untreated control
[6]
  Binding (% of untreated control), Tobacco leaves, Dark: 100 % of untreated control
  Binding (% of untreated control), Tobacco leaves, Light: 100 % of untreated control
[8]; DARK, 10 μl/l E
  % of Control: 16 % of Control
  Height (cm): 1.5 cm
[8]; LIGHT, 10 μl/l E
  % of Control: 16 % of Control
  Height (cm): 1.5 cm
[8]; LIGHT, 1000 μl/l E
  % of Control: 16 % of Control
  Height (cm): 1.5 cm
[8]; after exposure to DACP
  1/2 maximum of ethylene for growth inhibition (Lineweaver-Burk plot): 50 μl/l
